Results as given in publication PMC5730604.
Positions of bridges follow the written chain, without caps; N, C: chain ends. Non-standard residues stand in square brackets, D forms with d. Residues, ends and D or L forms follow the SMILES beside them. Chains are numbered I, II in the order given. *: point of attachment. PEG28 = NCCOCCOCCOCCOCCOCCOCCOCCOCCOCCOCCOCCOCCOCCOCCOCCOCCOCCOCCOCCOCCOCCOCCOCCOCCOCCOCCOCCOCCC(=O)O; Tyr(3-NO2) = N[C@@H](Cc1ccc(O)c([N+](=O)[O-])c1)C(=O)O; Hyp = O=C(O)[C@@H]1C[C@@H](O)CN1; For = O=C*

Tests used:
[1] = biological target: HT-29 cells (Homo sapiens, UniProt P26006); test: Competition with 200 nM B9-Biotin (flow cytometry); assay type: binding
[2] = test system: mouse skin; test: Local skin inflammation model, immune cell infiltration; assay type: in vivo; details: immune-deficient Balb/c nu/nu mice, s.c., 200 nmol to 500 nmol, 24 h
Method: (§1) Animals: Eighth Edition. W ashington, DC: The National Academies Press, 2011) were […]
(§2) Committee (LANUV AZ. 87- 51.04.2010.A278). All experiments were performed in the Institute […]
(§3) GmbH (Sulzf eld, Germany) were used. Mice were housed in individual ventilated cages under […]
(§4) humidity and a 12h dark/light cycle.
(§5) Soest, Germany) was given ad libitum. Guinea pigs were housed in conventional open cages in the same way as describe for mice. Animals were allowed to acclimatize to their […]
(§6) additional immunohistochemical stainings with antibodies against granulocytes/monocytes

[3] = test system: guinea pig skin; test: as above; assay type: in vivo; details: s.c. 100 nmol
Method: as §1, §2, §3, §4, §5, §6

[4] = fresh mouse serum, 60 µM, extraction and RP-HPLC (C4) quantification at 214 and 375 nm
Method: vor t exing the sample was incubated f or 48 h. At specif ic time points, the solution was again
vortexed, a sample (95 µl) was withdra wn and subjected to ultraf iltration (Vivaspin 500, 10 k Da
cutoff; 15 min, 16,000 g). The f iltrate was put on ice while the f ilter remainder was mixed with
an equal volume of ethanol (95%), vortexed and centrifuged (5 min, 16.000 g). W ith the
resulting supernatant, this procedure was repeated. The f inal supernatant was mixed with an
equal volume of f iltrate, shock frozen in liq uid nitr og en and stored at - 80 °C until analysis. RP -
HPLC analysis was performed using an analytical C4- RP column with a gradient of 5-65%
absorption at 214 and 375 nm (specif ic absorption maximum of the nitro-tyrosine building block
The absorption peak observed at the

[5] = test system: A431, U-87 or HT-29 cells; test: MTT assay; assay type: cell-based, Human; details: 100 nM to 10 µM, 24 h or 72 h, A431, U-87, HT-29 cells, triplicates
Method: were recorded at 278 K and referenced to the water signal. Spectra were assigned with CCPNMR1 using the sequential assignment protocol. Secondary Hα chemical shif ts were calculated as the difference between the measured Hα chemical shift and the respective random coil shif t.2 Random coil shifts were temperature corrected using the correction factors calculated by Kjaergaard et al.3 For the D-amino acids, the random coil shift of the respective L-amino acid was used, the random coil shif t of Tyr was used for Tyr(3-NO2) and 4.54 ppm was used f or Hyp Hα . Oxid ized Y9 (MW 5268.0) was prepared by dissolving Y9 in Na2HPO4 buff er (50 mM, pH 7.0). After HPLC purif ication, the oxidized Y9 (2.1 mg) was dissolved in 90% H2O/10% D2O (500 µL) at pH 2.9 and NMR spectra were acquired as described above. […]
Stained cells were analyzed by f low cytometr y. […]
At the end of the incubation period (24 h or 72 h at 37°C in 5% CO2) cells were 30- 80% conf luent. […] 04M HCl were added and absorbances were measured at 595 nm.
Absorbances were plotted against the agent’s concentrations. A high absorbance value […]
present in the well as compared to wells with low absorbance values.
Figure S13 : MTT assays showing no ef f ect of Y9 and sc- Y9 on the viability and prolif eration of diff erent tumor cell lines. […] To indicate background: the absorbance values of medium without cells were between 0.11 and […]

[6] = mice, local s.c. injection of 200 or 500 nmol, dot-blot, detection limit ~1 nM
Method: according to standard procedures. From 20 ml antiserum, 1.5 mg purified antibody were
isolated and stored in aliquots at -20 °C in PBS + 0.01% thimerosal, 0.1% BSA diluted 1:1 with
glycerin (f inal concentration 227 µg/ml).
on a nitrocellulose membrane.
concentrations between 0.5 nM and 20 nM and s amples were also spotted in triplicates. After
drying, the membrane was soaked in TBST (150 mM NaCl, 50 mM Tris-HCl, pH 7.4, 0.05%
tween), blocked for 1 h at RT with 5% nonfat dry milk in TBST. The membrane was washed 3
1:2000 in TBST, washed 3 times, incubated 1 h at RT with anti-rabbit-HRP (GE Healthcare)
diluted 1:5,000 in 5% nonf at dry milk in TBST. The membrane was f inally washed 3 times in
TBST and then incubated with ECL prime substrate (GE Healthcare). Chemiluminescent
signals were recorded in an LAS-4000 mini Image reader (Fuji). Spot intensities were
quantitated using Image J software. The calibration samples were used to prepare a linear
For the statistical analysis, mean (M) and standard deviation (SD) were calculated. T he
statistical analysis was p erf ormed with the GraphPad Prism Software, Version 5.0 (Graph Pad,
values of < 0.05 were considered signif icant.

HT-29 cells, sequence (P26006 33-1051): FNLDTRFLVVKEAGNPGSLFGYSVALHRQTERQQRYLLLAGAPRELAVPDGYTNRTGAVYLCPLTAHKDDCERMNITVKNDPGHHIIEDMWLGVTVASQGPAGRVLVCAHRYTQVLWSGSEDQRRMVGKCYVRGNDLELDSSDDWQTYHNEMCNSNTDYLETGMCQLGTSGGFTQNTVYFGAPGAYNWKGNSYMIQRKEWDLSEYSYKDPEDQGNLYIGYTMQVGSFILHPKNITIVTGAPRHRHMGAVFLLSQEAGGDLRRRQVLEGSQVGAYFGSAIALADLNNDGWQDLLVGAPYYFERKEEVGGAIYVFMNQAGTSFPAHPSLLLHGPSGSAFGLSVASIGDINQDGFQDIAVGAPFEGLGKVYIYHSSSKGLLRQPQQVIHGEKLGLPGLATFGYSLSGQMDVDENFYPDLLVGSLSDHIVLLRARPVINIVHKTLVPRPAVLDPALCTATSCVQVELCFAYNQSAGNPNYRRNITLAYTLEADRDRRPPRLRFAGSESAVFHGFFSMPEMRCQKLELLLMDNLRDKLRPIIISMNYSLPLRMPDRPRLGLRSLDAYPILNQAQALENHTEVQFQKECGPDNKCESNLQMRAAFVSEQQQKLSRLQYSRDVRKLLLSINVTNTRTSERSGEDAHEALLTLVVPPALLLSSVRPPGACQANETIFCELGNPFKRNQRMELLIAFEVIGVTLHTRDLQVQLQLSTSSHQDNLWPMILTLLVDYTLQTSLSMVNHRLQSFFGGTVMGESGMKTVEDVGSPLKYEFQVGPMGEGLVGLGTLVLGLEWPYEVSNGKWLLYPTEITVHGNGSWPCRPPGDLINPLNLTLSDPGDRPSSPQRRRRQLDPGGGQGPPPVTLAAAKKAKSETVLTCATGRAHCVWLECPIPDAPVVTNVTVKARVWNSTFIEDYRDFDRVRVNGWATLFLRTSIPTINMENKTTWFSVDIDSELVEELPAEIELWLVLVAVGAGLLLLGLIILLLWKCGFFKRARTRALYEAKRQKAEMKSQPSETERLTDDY
HT-29 cells, sequence (P05556 21-798 partner): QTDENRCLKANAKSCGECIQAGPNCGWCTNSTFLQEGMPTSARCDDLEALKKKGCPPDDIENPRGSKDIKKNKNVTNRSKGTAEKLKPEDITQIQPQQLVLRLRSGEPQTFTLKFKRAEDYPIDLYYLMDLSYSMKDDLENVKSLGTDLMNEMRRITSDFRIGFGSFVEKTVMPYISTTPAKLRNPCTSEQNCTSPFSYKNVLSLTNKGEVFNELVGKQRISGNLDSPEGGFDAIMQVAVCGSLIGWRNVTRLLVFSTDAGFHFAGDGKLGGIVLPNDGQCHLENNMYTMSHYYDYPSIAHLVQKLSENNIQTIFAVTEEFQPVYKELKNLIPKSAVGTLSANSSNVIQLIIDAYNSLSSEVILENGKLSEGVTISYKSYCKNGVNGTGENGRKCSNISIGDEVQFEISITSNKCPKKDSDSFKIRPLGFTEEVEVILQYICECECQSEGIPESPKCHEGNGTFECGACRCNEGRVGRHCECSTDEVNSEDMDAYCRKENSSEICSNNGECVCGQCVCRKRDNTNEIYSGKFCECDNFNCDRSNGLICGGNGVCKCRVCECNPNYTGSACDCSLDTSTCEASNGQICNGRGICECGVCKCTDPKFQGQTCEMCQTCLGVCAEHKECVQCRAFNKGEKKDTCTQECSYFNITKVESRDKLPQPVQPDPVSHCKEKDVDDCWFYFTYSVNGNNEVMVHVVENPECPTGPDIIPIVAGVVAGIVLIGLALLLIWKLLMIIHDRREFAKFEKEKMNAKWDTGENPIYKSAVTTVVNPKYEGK

CC[C@H](C)[C@H](NC(=O)[C@H](CCSC)NC=O)C(=O)N[C@@H](Cc1ccccc1)C(=O)N[C@@H](CC(C)C)C(=O)NCC(=O)NCC(=O)N[C@@H](CCCCNC(=O)CCOCCOCCOCCOCCOCCOCCOCCOCCOCCOCCOCCOCCOCCOCCOCCOCCOCCOCCOCCOCCOCCOCCOCCOCCOCCOCCOCCOCCNC(=O)[C@H]1CSSC[C@@H](N)C(=O)N[C@H](CC(=O)O)C(=O)NCC(=O)N[C@@H](Cc2ccc(O)c([N+](=O)[O-])c2)C(=O)NCC(=O)N2C[C@H](O)C[C@H]2C(=O)N[C@@H](CC(N)=O)C(=O)N1)C(=O)N[C@@H](CCCCNC(=O)CCOCCOCCOCCOCCOCCOCCOCCOCCOCCOCCOCCOCCOCCOCCOCCOCCOCCOCCOCCOCCOCCOCCOCCOCCOCCOCCOCCOCCNC(=O)[C@H]1CSSC[C@@H](N)C(=O)N[C@H](CC(=O)O)C(=O)NCC(=O)N[C@@H](Cc2ccc(O)c([N+](=O)[O-])c2)C(=O)NCC(=O)N2C[C@H](O)C[C@H]2C(=O)N[C@@H](CC(N)=O)C(=O)N1)C(=O)O [Y9] (I: H-[dC][dD]G[Tyr(3-NO2)]G[Hyp]N[dC][PEG28] / II: H-[dC][dD]G[Tyr(3-NO2)]G[Hyp]N[dC][PEG28] / III: For-MIFLGGKK-OH; disulfide I:1-I:8, II:1-II:8; amide I:C-III:7, II:C-III:8)
concentration to displace B9-Biotin relative to the monovalent binder [1]: four-fold lower
immune infiltrates [2]: dose-dependent increases in immune infiltrates
immune infiltrate ([3]; guinea pigs immune suppressed by four weekly injections of cyclophosphamide): less intense
immune cell infiltration into the injection site ([3]; guinea pigs, 24 h): most pronounced
time Y9 remains largely intact [4]: > 24 h
effect on viability and proliferation (MTT) [5]: No effect
detection of binder peptide in serum after 24 h [6]: still detected
